Measurements: US7902373B2 (Pfizer Inc, priority 2006, dated 2011)

Molecular target: human recombinant H-PGDS (Homo sapiens, UniProt O60760)
Assay: Fluorescence intensity h-PGDS TBA enzyme assay
Format: biochemical
Details: Examples up to 622 (and 3a, 3b)

human recombinant H-PGDS, sequence (O60760 whole entry): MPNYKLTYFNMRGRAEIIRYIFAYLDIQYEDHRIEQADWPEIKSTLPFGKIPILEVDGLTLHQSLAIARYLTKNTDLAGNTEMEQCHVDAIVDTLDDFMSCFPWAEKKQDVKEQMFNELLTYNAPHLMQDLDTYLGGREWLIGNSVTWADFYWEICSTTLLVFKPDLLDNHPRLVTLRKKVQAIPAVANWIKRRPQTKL

Q: For `Cn1cc(CN2CCC(NC(=O)c3ccc(-c4cccc(F)c4)nc3)CC2)c(=O)n(C)c1=O` [Example 264, N-{1-[(1,3-Dimethyl-2,4-dioxo-1,2,3,4-tetrahydropyrimidin-5-yl)methyl]piperidin-4-yl}-6-(3-fluorophenyl)nicotinamide], which IC50 is on record?
A: 2 nM

Q: For `O=C(NC1CCN(Cc2ccccn2)CC1)c1ccc(-c2ccc(F)cc2)nc1` [Example 11, 6-(4-Fluorophenyl)-N-[1-(pyridin-2-ylmethyl)piperidin-4-yl]nicotinamide], which IC50 is on record?
A: 39.4 nM

Q: `O=C(NC1CCN(Cc2ccnc3cccnc23)CC1)c1ccc(-c2cccc(F)c2)nc1` [Example 450, 6-(3-Fluorophenyl)-N-[1-(1,5-naphthyridin-4-ylmethyl)piperidin-4-yl]nicotinamide] was tested. Which IC50 did it give?
A: 2.05 nM

Q: How did the IC50 turn out when `O=C(NC1CCN(Cc2ccc(-n3nccn3)cc2)CC1)c1ccc(-c2cccc(F)c2)nc1` [Example 493, 6-(3-Fluorophenyl)-N-{1-[4-(2H-1,2,3-triazol-2-yl)benzyl]piperidin-4-yl}nicotinamide] was run?
A: 1.1 nM

Q: For `O=C(NC1CCN(CC2CCOCC2)CC1)c1ccc(-c2ccccc2)nc1` [Example 6, 6-Phenyl-N-[1-(tetrahydro-2H-pyran-4-ylmethyl)piperidin-4-yl]nicotinamide], which IC50 is on record?
A: 0.377 nM

Q: `CCC(c1ccc(OC)c(OC)c1)N1CCC(NC(=O)c2ccc(-c3cccc(F)c3)nc2)CC1` (stereo not shown) [Example 541, N-{1-[1-(3,4-Dimethoxyphenyl)propyl]piperidin-4-yl}-6-(3-fluorophenyl)nicotinamide] was tested. Which IC50 did it give?
A: 0.951 nM

Q: For `Cn1nc(CN2CCC(NC(=O)c3ccc(-c4cccc(F)c4)nc3)CC2)nc1-c1ccccn1` [Example 485, 6-(3-Fluorophenyl)-N-{1-[(1-methyl-5-pyridin-2-yl-1H-1,2,4-triazol-3-yl)methyl]piperidin-4-yl}nicotinamide], which IC50 is on record?
A: 2.77 nM

Q: With `O=C(NC1CCN(Cc2ccccn2)CC1)c1ccc(-c2cccc(F)c2)nc1` [Example 28, 6-(3-Fluorophenyl)-N-[1-(pyridin-2-ylmethyl)piperidin-4-yl]nicotinamide] as the compound, how does the IC50 read?
A: 1.72 nM

Q: `O=C(NC1CCN(Cc2c[nH]nc2-c2cccc(F)c2)CC1)c1ccc(-c2cccc(F)c2)nc1` [Example 439, 6-(3-Fluorophenyl)-N-(1-{[3-(3-fluorophenyl)-1H-pyrazol-4-yl]methyl}piperidin-4-yl)nicotinamide] was tested. Which IC50 did it give?
A: 0.762 nM

Q: For `COc1ccccc1Cn1nnnc1N1CCC(NC(=O)c2ccc(-c3cccc(F)c3)nc2)CC1` [Example 96, 6-(3-Fluorophenyl)-N-{1-[1-(2-methoxybenzyl)-1H-tetrazol-5-yl]piperidin-4-yl}nicotinamide], which IC50 is on record?
A: 1.19 nM

Q: Which IC50 does the source give for `CCC(CO)n1cnc2c(N3CCC(NC(=O)c4ccc(-c5cccc(F)c5)nc4)CC3)ncnc21` (single isomer, unassigned) [Example 582, 6-(3-Fluorophenyl)-N-(1-{9-[1-(hydroxymethyl)propyl]-9H-purin-6-yl}piperidin-4-yl)nicotinamide] here?
A: 1.22 nM

Q: How did the IC50 turn out when `O=C(NC1CCN(c2ncnc3[nH]ccc23)CC1)c1ccc(-c2cccc(F)c2)nc1` [Example 124, 6-(3-fluorophenyl)-N-[1-(7H-pyrrolo[23-d]pyrimidin-4-yl)piperidin-4-yl]nicotinamide] was run?
A: 0.345 nM

Q: For `CC(C)c1cc(CN2CCC(NC(=O)c3ccc(-c4cccc(F)c4)nc3)CC2)n[nH]1` [Example 366], which IC50 is on record?
A: 2.42 nM

Q: How did the IC50 turn out when `COC(=O)c1ccc2[nH]cc(CN3CCC(NC(=O)c4ccc(-c5cccc(F)c5)nc4)CC3)c2c1` [Example 311, Methyl 3-{[4-({[6-(3-fluorophenyl)pyridin-3-yl]carbonyl}amino)piperidin-1-yl]methyl}-1H-indole-5-carboxylate] was run?
A: 1.72 nM

Q: For `COc1ccc(CN2CCC(NC(=O)c3ccc(-c4cccc(F)c4)nc3)CC2)c(F)c1` [Example 324, N-[1-(2-Fluoro-4-methoxybenzyl)piperidin-4-yl]-6-(3-fluorophenyl)nicotinamide], which IC50 is on record?
A: 0.531 nM

Q: With `CCn1cc(CN2CCC(NC(=O)c3ccc(-c4cccc(F)c4)nc3)CC2)cn1` [Example 185, N-{1-[(1-Ethyl-1H-pyrazol-4-yl)methyl]piperidin-4-yl}-6-(3-fluorophenyl)nicotinamide] as the compound, how does the IC50 read?
A: 11 nM

Q: How did the IC50 turn out when `O=C(NC1CCN(Cc2ccc(-c3ncccn3)cc2)CC1)c1ccc(-c2cccc(F)c2)nc1` [Example 330, 6-(3-Fluorophenyl)-N-[1-(4-pyrimidin-2-ylbenzyl)piperidin-4-yl]nicotinamide] was run?
A: 1.71 nM

Q: How did the IC50 turn out when `COc1cccc(OC)c1C(C)N1CCC(NC(=O)c2ccc(-c3cccc(F)c3)nc2)CC1` (stereo not shown) [Example 533, N-{1-[1-(2,6-Dimethoxyphenyl)ethyl]piperidin-4-yl}-6-(3-fluorophenyl)nicotinamide] was run?
A: 2.42 nM

Q: With `CC(C)N1CCC(NC(=O)c2ccc(-c3cccc(F)c3)nc2)C1` (stereo not shown) [Example 589, 6-(3-Fluorophenyl)-N-(1-isopropylpyrrolidin-3-yl)nicotinamide] as the compound, how does the IC50 read?
A: 33.3 nM

Q: Which IC50 does the source give for `O=C(NC1CCN(Cc2ccc(Br)cn2)CC1)c1ccc(-c2cccc(F)c2)nc1` [Example 475, N-{1-[(5-Bromopyridin-2-yl)methyl]piperidin-4-yl}-6-(3-fluorophenyl)nicotinamide] here?
A: 4.07 nM

Q: For `O=C(NC1CCN(C(=O)OCc2ccccc2)CC1)c1ccc(-c2cccc(F)c2)nc1` [Example 521, Benzyl 4-({[6-(3-fluorophenyl)pyridin-3-yl]carbonyl}amino)piperidine-1-carboxylate], which IC50 is on record?
A: 556 nM

Q: `Cc1c(CN2CCC(NC(=O)c3ccc(-c4cccc(F)c4)nc3)CC2)cnn1C` [Example 287, N-{1-[(1,5-dimethyl-1H-pyrazol-4-yl)methyl]piperidin-4-yl}-6-(3-fluorophenyl)nicotinamide] was tested. Which IC50 did it give?
A: 3 nM

Q: With `Cc1nn(C(C)C)c(C)c1CN1CCC(NC(=O)c2ccc(-c3cccc(F)c3)nc2)CC1` [Example 361, 6-(3-Fluorophenyl)-N-{1-[(1-isopropyl-3,5-dimethyl-1H-pyrazol-4-yl)methyl]piperidin-4-yl}nicotinamide] as the compound, how does the IC50 read?
A: 1.35 nM

Q: For `O=C(NC1CCN(Cc2ccc3nsnc3c2)CC1)c1ccc(-c2cccc(F)c2)nc1` [Example 288, N-[1-(2,1,3-Benzothiadiazol-5-ylmethyl)piperidin-4-yl]-6-(3-fluorophenyl)nicotinamide], which IC50 is on record?
A: 1.25 nM

Q: For `Cc1ccc(-n2nnnc2N2CCC(NC(=O)c3ccc(-c4cccc(F)c4)nc3)CC2)cc1` [Example 95, 6-(3-Fluorophenyl)-N-{1-[1-(4-methylphenyl)-1H-tetrazol-5-yl]piperidin-4-yl}nicotinamide], which IC50 is on record?
A: 0.764 nM

Q: `O=C(NC1CCN(Cc2cc(=O)[nH]c(=O)[nH]2)CC1)c1ccc(-c2cccc(F)c2)nc1` [Example 310, N-{1-[(2,6-Dioxo-1,2,3,6-tetrahydropyrimidin-4-yl)methyl]piperidin-4-yl)-6-(3-fluorophenyl)nicotinamide] was tested. Which IC50 did it give?
A: 4.78 nM

Q: With `O=C(NC1CCN(Cc2cccc3c2OCC3)CC1)c1ccc(-c2cccc(F)c2)nc1` [Example 490, N-[1-(2,3-Dihydro-1-benzofuran-7-ylmethyl)piperidin-4-yl]-6-(3-fluorophenyl)nicotinamide] as the compound, how does the IC50 read?
A: 0.601 nM

Q: How did the IC50 turn out when `COc1cc(N2CCC(NC(=O)c3ccc(-c4cccc(F)c4)nc3)CC2)ncn1` [Example 49, 6-(3-Fluorophenyl)-N-[1-(6-methoxypyrimidin-4-yl)piperidin-4-yl]nicotinamide] was run?
A: 0.619 nM
